Experiments:
[1] = Rat PK, single oral gavage; type: in vivo; settings: single dose 0.1 mg/kg; for AUC / Rat AUC: PEG 300; for half-life: read-out: Rat T1/2 (converted)
[2] = Mouse PK, single oral gavage; settings: single dose 0.3 mg/kg; for AUC: Mouse AUC; for half-life: Mouse T1/2, oral gavage; for Tmax: Mouse Tmax
[3] = mouse, in vivo, po, 0.3 mg/kg, oral gavage, 20% PEG400 in oleic acid-rich triglyceride
[4] = mouse, in vivo, po, 0.3 mg/kg, Mouse Cmax, oral gavage
[5] = mouse, in vivo, po, 0.3 mg/kg, oral gavage

Cmax ([1]; rat, in vivo) [nM]	Tmax ([1]; rat, in vivo) [h]	AUC ([1]; rat, in vivo) [µM·h]	half-life ([1]; rat, in vivo) [h]	AUC [2, 3] [µM·h]	Cmax [2, 4] [nM]	half-life ([2]; mouse, in vivo, po, 0.3 mg/kg) [h]	Tmax [2, 5] [h]	Cmax [1] [nM]	Rat T1/2 [1] [h]	Rat Tmax [1] [h]	Rat AUC [1] [µM·h]	Structure (SMILES)	Mouse T1/2 ([2]; oral gavage) [h]	Mouse AUC ([2]; oral gavage, 20% PEG400 in oleic acid-rich triglyceride) [µM·h]	Cmax ([2]; read-out: Mouse Cmax, oral gavage) [nM]
23 ± 1	4.4 ± 0.2	0.234 ± 0.019	3.7 ± 0.6	5.06	460	2.8	4.1	–	–	–	–	O=C(Nc1ccc(OC(F)(F)F)cc1)NC1CCN(C(=O)C2CCOCC2)CC1	–	–	–
–	–	–	–	2.93	146	5.1	7.3	–	–	–	–	O=C(Nc1ccc(OC(F)(F)F)cc1)NC1CCN(C(=O)c2ccoc2)CC1	–	–	–
–	–	–	–	0.656	50	3.4	6.2	–	–	–	–	O=C(Nc1ccc(OC(F)(F)F)cc1)NC1CCN(C(=O)[C@@H]2CCOC2)CC1	–	–	–
–	–	–	–	0.67	58	2.9	4.2	–	–	–	–	O=C(Nc1ccc(OC(F)(F)F)cc1)NC1CCN(C(=O)C2=COCC2)CC1	–	–	–
133 ± 4	2.3 ± 0.4	1.08 ± 0.089	6 ± 0.7	9.99	409	6.2	9	–	–	–	–	Cc1occc1C(=O)N1CCC(NC(=O)Nc2ccc(OC(F)(F)F)cc2)CC1	–	–	–
–	–	–	–	4.56	294	3.9	5.7	–	–	–	–	Cc1ccoc1C(=O)N1CCC(NC(=O)Nc2ccc(OC(F)(F)F)cc2)CC1	–	–	–
–	–	–	–	0.634	31	5.3	7.6	–	–	–	–	O=C(Nc1ccc(OC(F)(F)F)cc1)NC1CCN(C(=O)C2CCCOC2)CC1 (stereo not drawn)	–	–	–
54 ± 3	2.5 ± 0.2	0.391 ± 0.031	3 ± 0.4	5.26	376	3.6	5.2	–	–	–	–	O=C(Nc1ccc(C(F)(F)F)cc1)NC1CCN(C(=O)C2CCOCC2)CC1	–	–	–
308 ± 16	3.4 ± 0.3	3.55 ± 0.271	4.4 ± 0.4	0.794	28	4.2	7.3	–	–	–	–	O=C(Nc1ccc(C(F)(F)F)cc1)NC1CCN(C(=O)c2ccoc2)CC1	–	–	–
–	–	–	–	0.729	154	1.2	1.7	–	–	–	–	O=C(Nc1ccc(C(F)(F)F)cc1)NC1CCN(C(=O)[C@@H]2CCOC2)CC1	–	–	–
–	–	–	–	0.875	78	2.8	4.1	–	–	–	–	O=C(Nc1ccc(C(F)(F)F)cc1)NC1CCN(C(=O)C2=COCC2)CC1	–	–	–
–	–	–	–	3.17	199	4.1	5.9	–	–	–	–	O=C(Nc1ccc(C(F)(F)F)cc1)NC1CCN(C(=O)C2CCCOC2)CC1 (stereo not drawn)	–	–	–
–	–	–	–	0.083	11	2	2.8	–	–	–	–	O=C(Nc1ccc(C(F)(F)F)cc1)NC1CCN(C(=O)c2cc[nH]c2)CC1	–	–	–
–	–	–	–	12.6	703	4.6	6.6	–	–	–	–	O=C(Nc1ccc(OC(F)(F)F)cc1)NC1CCN(C(=O)C2CCOC2)CC1 (stereo not drawn)	–	–	–
–	–	–	–	4.73	342	6.9	6.8	–	–	–	–	O=C(Nc1ccc(C(F)(F)F)cc1)NC1CCN(C(=O)C2CCOC2)CC1 (stereo not drawn)	–	–	–
84 ± 5	2.8 ± 0.3	0.637 ± 0.085	2.7 ± 0.4	4.78	162	4.8	5.9	–	–	–	–	CC(C)C(=O)N1CCC(NC(=O)Nc2ccc(OC(F)(F)F)c(F)c2)CC1	–	–	–

Cmax ([1]; rat, in vivo) [nM]	Tmax ([1]; rat, in vivo) [h]	AUC ([1]; rat, in vivo) [µM·h]	half-life ([1]; rat, in vivo) [h]	AUC [2, 3] [µM·h]	Cmax [2, 4] [nM]	half-life ([2]; mouse, in vivo, po, 0.3 mg/kg) [h]	Tmax [2, 5] [h]	Cmax [1] [nM]	Rat T1/2 [1] [h]	Rat Tmax [1] [h]	Rat AUC [1] [µM·h]	Structure (SMILES)	Mouse T1/2 ([2]; oral gavage) [h]	Mouse AUC ([2]; oral gavage, 20% PEG400 in oleic acid-rich triglyceride) [µM·h]	Cmax ([2]; read-out: Mouse Cmax, oral gavage) [nM]
38 ± 3	1.8 ± 0.2	0.212 ± 0.022	2.4 ± 0.3	9.65	518	6.2	7.9	–	–	–	–	CC(C)C(=O)N1CCC(NC(=O)Nc2ccc(C(F)(F)F)c(F)c2)CC1	–	–	–
17 ± 2	1.6 ± 0.1	0.066 ± 0.011	1.2 ± 0.2	–	–	–	–	–	–	–	–	CC(C)C(=O)N1CCC(CC(=O)Nc2ccc(OC(F)(F)F)c(F)c2)CC1	–	–	–
–	–	–	–	11.6	590	5	7.4	–	–	–	–	O=C(O)CC1(CC(=O)N2CCC(NC(=O)Nc3ccc(C(F)(F)F)cc3)CC2)CCCCC1	–	–	–
–	–	–	–	20.6	978	5.4	8	196 ± 12	4.2 ± 0.8	4.5 ± 0.5	2.701 ± 0.357	CCC(=O)N1CCC(NC(=O)Nc2ccc(OC(F)(F)F)c(F)c2)CC1	–	–	–
–	–	–	–	5.59	282	5.1	7.6	95 ± 3	2.9 ± 0.3	4.0 ± 0.1	1.027 ± 0.065	O=C(Nc1ccc(OC(F)(F)F)c(F)c1)NC1CCN(C(=O)C2CC2)CC1	–	–	–
84 ± 6	2.9 ± 0.3	0.869 ± 0.127	3.8 ± 0.6	0.0973 ± 0.0001	2550	174	3.7	–	–	–	–	O=C(Nc1ccc(OC(F)(F)F)c(F)c1)NC1CCN(C(=O)[C@@H]2CCOC2)CC1	–	–	–
43 ± 3	2.6 ± 0.2	0.328 ± 0.018	3.7 ± 0.5	0.0994 ± 0.0001	24700	1050	6	–	–	–	–	O=C(Nc1ccc(OC(F)(F)F)c(F)c1)NC1CCN(C(=O)C2CCCOC2)CC1 (stereo not drawn)	–	–	–
–	–	–	–	–	6490	356	4.7	–	–	–	–	O=C(Nc1ccc(C(F)(F)F)cc1)NC1CCN(C(=O)C2(C(F)(F)F)CC2)CC1	–	–	–
103 ± 8	3.1 ± 0.2	1.24 ± 0.063	6.2 ± 0.4	0.0985 ± 0.0001	–	–	–	–	–	–	–	O=C(Nc1ccc(OC(F)(F)F)c(F)c1)NC1CCN(C(=O)C2CCOCC2)CC1	–	–	–
41 ± 3	4.3 ± 0.4	0.486 ± 0.087	2.9 ± 0.3	0.0997 ± 0.0001	–	–	–	–	–	–	–	O=C(Nc1ccc(OC(F)(F)F)c(F)c1)NC1CCN(C(=O)C2(C(F)(F)F)CC2)CC1	–	–	–
139 ± 9	4 ± 0.4	1.65 ± 0.042	4.5 ± 0.4	0.0988 ± 0.0002	–	–	–	–	–	–	–	O=C(Nc1ccc(C(F)(F)F)c(F)c1)NC1CCN(C(=O)C2CCOCC2)CC1	–	–	–
105 ± 16	3.7 ± 0.5	1.33 ± 0.093	4.7 ± 0.8	≥ 0.0999	–	–	–	–	–	–	–	CCOC(=O)N1CCC(NC(=O)Nc2ccc(OC(F)(F)F)c(F)c2)CC1	–	–	–
40 ± 2	2.9 ± 0.3	0.327 ± 0.032	3.6 ± 0.6	0.0982 ± 0.0001	–	–	–	–	–	–	–	O=C(Nc1ccc(OC(F)(F)F)c(F)c1)NC1CCN(C(=O)N2CCOCC2)CC1	–	–	–
11 ± 1	2.5 ± 0.2	0.075 ± 0.006	2.3 ± 0.4	≥ 0.0999	–	–	–	–	–	–	–	CC[C@H](C)C(=O)N1CCC(NC(=O)Nc2ccc(OC(F)(F)F)c(OC(F)(F)F)c2)CC1	–	–	–
3.6 ± 0.6	1.4 ± 0.1	0.016 ± 0.001	0.9 ± 0.1	0.0995 ± 0.0001	–	–	–	–	–	–	–	CC[C@H](C)C(=O)N1CCC(CC(=O)Nc2ccc(OC(F)(F)F)c(F)c2)CC1	–	–	–

Structure (SMILES)	Cmax ([1]; rat, in vivo) [nM]	Tmax ([1]; rat, in vivo) [h]	AUC ([1]; rat, in vivo) [µM·h]	half-life ([1]; rat, in vivo) [h]	AUC [2, 3] [µM·h]	Cmax [2, 4] [nM]	half-life ([2]; mouse, in vivo, po, 0.3 mg/kg) [h]	Tmax [2, 5] [h]	Cmax [1] [nM]	Rat T1/2 [1] [h]	Rat Tmax [1] [h]	Rat AUC [1] [µM·h]	Mouse T1/2 ([2]; oral gavage) [h]	Mouse AUC ([2]; oral gavage, 20% PEG400 in oleic acid-rich triglyceride) [µM·h]	Cmax ([2]; read-out: Mouse Cmax, oral gavage) [nM]
CCC(=O)N1CCC(NC(=O)Nc2ccc(OC(F)(F)F)cc2)CC1 [drawing 62]	133 ± 4	2.3 ± 0.4	1.08 ± 0.089	6 ± 0.7	–	–	–	–	–	–	–	–	12.1	10.65	495

From US20240024302A1, “SOLUBLE EPOXIDE HYDROLASE (sEH) INHIBITORS AND DUAL COX/sEH INHIBITORS FOR THE TREATMENT OF ARRHYTHMOGENIC CARDIOMYOPATHY” (BETH ISRAEL DEACONESS MEDICAL CENTER, INC., priority 2020, published 2024)
